Read-outs that look alike come from different tables or passages of the source.
What was measured:
[1] = molecular target: DCN1 (DCUND1) protein PONY domain (Homo sapiens (Human), UniProt Q96GG9); experiment: TR-FRET assay, DCN1 binding with FAM-labeled probe
How it was run: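 TR-FRET ratio (Tb-DCN1 to FAM-probe) read at 1, 5 and 24 hrs after compound addition. Protein: recombinant PONY domain from E. coli, biotinylated and coupled to streptavidin terbium. Either 5 nM DCN1 with 20 nM FAM-probe, or 0.31 nM DCN1 with 100 nM FAM-labelled plus 800 nM unlabelled probe.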

[2] = molecular target: DCN1 protein (Homo sapiens (Human), UniProt Q96GG9); experiment: Intact Protein MS Analysis with the RapidFire-TOF System (covalent adduct formation); assay type: binding; conditions: MS Emax; 400 nM DCN1, 3 hours at room temperature
Procedure: An MS assay was performed to evaluate the ability of the compounds to covalently modify DCN-1.
DCN1 protein, His-TEV-DCN1, were expressed in E. Coli. The His-tagged protein was first purified with an Ni-NTA column. The His-tag was cleaved using His-tag TEV protease and the His-tags were removed using a second Ni-NTA column. Protein purity was verified with SDS-PAGE and intact MS. DCN1 was dissolved in a buffer containing 25 mM Tris-HCl, 200 mM NaCl, and 1 mM DTT at 400 nM. 11 concentrations of compounds were added to the DCN1 solution and incubated at room temperature for 3 hours, unless otherwise specified. The reaction plates were quenched by adding 0.2% formic acid. […] The cartridge was re-equilibrated with loading buffer for 1 second before collection of the next sample. The Q-TOF was operated in TOF-only positive ionization mode set to the following parameters: Gas Temp=350 C, Drying Gas=7 l/min, Nebulizer=50 psi, Sheath Gas Temp=400 C, Sheath Gas Flow=12 l/min, Vcap=4000 V, Nozzle Voltage=1000 V, Fragmentor=125 V, Skimmer=65 V and Oct 1 RF Vpp=750V. Raw MS data files were deconvoluted and analyzed using the Agilent MassHunter Bioconfirm software package to identify both parent protein and expected compound adduct mass signatures.

[3] = 24 hr after treatment with compound, read-out: TR FRET IC50 24 hr
[4] = TR FRET IC50 1 hr (nM), 1 hr after treatment with compound

DCN1 (DCUND1) protein PONY domain, sequence (Q96GG9 60-248): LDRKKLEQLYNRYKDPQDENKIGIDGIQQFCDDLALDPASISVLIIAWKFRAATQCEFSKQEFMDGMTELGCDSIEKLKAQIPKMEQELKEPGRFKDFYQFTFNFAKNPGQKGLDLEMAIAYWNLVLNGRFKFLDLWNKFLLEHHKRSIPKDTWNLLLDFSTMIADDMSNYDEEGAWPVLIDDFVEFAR
DCN1 protein, sequence (Q96GG9 whole entry): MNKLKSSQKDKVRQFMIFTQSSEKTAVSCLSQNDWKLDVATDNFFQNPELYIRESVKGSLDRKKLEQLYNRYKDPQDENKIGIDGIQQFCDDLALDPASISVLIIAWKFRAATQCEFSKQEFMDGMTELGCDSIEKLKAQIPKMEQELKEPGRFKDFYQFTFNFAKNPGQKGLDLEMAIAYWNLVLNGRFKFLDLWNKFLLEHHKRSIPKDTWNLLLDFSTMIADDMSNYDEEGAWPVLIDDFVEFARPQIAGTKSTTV

| SMILES | IC50 [1, 3] [nM] | IC50 [1, 4] [nM] | % Adduct Formation [2] | IC50 ([1]; read-out: TR FRET IC50 1 hr, 1 hr after treatment with compound) [nM] |
| --- | --- | --- | --- | --- |
| C=C(C)C(=O)N[C@@H](C)c1nn(-c2ccccc2)c2c1[C@H](c1ccc(F)cc1)[C@H](NC(=O)c1cccc(C(F)(F)F)c1)C(=O)N2CC (mixture of isomers) [Compound I-16] | 1000 to 3000 | 200 to 1000 | + (MS Emax % adduct formation greater than or equal to 0.0 and less than or equal to 30.0) | – |
| C/C=C/C(=O)N[C@@H](C)c1nn(-c2ccccc2)c2c1[C@H](c1ccc(F)cc1)[C@H](NC(=O)c1cccc(C(F)(F)F)c1)C(=O)N2CC (mixture of isomers) [Compound I-23] | 1000 to 3000 | 1000 to 3000 | + (MS Emax % adduct formation greater than or equal to 0.0 and less than or equal to 30.0) | – |
| CCN1C(=O)[C@@H](NC(=O)c2cccc(C(F)(F)F)c2)[C@@H](c2ccc(F)cc2)c2c(C/C=C/C(=O)O)nn(-c3ccccc3)c21 (racemic) [Compound I-83, rac-(E)-4-((4R,5R)-7-ethyl-4-(4-fluorophenyl)-6-oxo-1-phenyl-5-(3-(trifluoromethyl)benzamido)-4,5,6,7-tetrahydro-1H-pyrazolo[3,4-b]pyridin-3-yl)but-2-enoic acid] | 1000 to 3000 | 1000 to 3000 | + (MS Emax % adduct formation greater than or equal to 0.0 and less than or equal to 30.0) | – |
| CC#CC(=O)N(C)Cc1nn(-c2ccccc2)c2c1[C@H](c1ccc(F)cc1)[C@H](NC(=O)c1cccc(C(F)(F)F)c1)C(=O)N2CC (racemic) [Compound I-90] | > 3000 | – | + (MS Emax % adduct formation greater than or equal to 0.0 and less than or equal to 30.0) | > 3000 |
| CCN1C(=O)[C@@H](NC(=O)c2cccc(C(F)(F)F)c2)[C@@H](c2ccc(F)cc2)c2c(CN(C)C(=O)COc3c(F)c(F)cc(F)c3F)nn(-c3ccccc3)c21 (racemic) [Compound I-228] | – | – | + (MS Emax % adduct formation greater than or equal to 0.0 and less than or equal to 30.0) | – |
| CCN1C(=O)[C@@H](NC(=O)c2cccc(C(F)(F)F)c2)[C@@H](c2ccc(F)cc2)c2c(CNC(=O)CCl)nn(-c3ccccc3)c21 (racemic) [Compound I-229] | – | – | + (MS Emax % adduct formation greater than or equal to 0.0 and less than or equal to 30.0) | – |
| CCN1C(=O)[C@@H](NC(=O)c2cccc(C(F)(F)F)c2)[C@@H](c2ccc(F)cc2)c2c(CNC(=O)C3=CCCC3)nn(-c3ccccc3)c21 (racemic) [Compound I-232] | – | – | + (MS Emax % adduct formation greater than or equal to 0.0 and less than or equal to 30.0) | – |
| CCN1C(=O)[C@@H](NC(=O)c2cccc(C(F)(F)F)c2)[C@@H](c2ccc(F)cc2)c2c(CN(C)C(=O)C3=CCCC3)nn(-c3ccccc3)c21 (racemic) [Compound I-233] | – | – | + (MS Emax % adduct formation greater than or equal to 0.0 and less than or equal to 30.0) | – |
| C/C=C/C(=O)N(C)Cc1nn(-c2ccccc2)c2c1[C@H](c1ccc(F)cc1)[C@H](NC(=O)c1cccc(C(F)(F)F)c1)C(=O)N2CC (racemic) [Compound I-234] | – | – | + (MS Emax % adduct formation greater than or equal to 0.0 and less than or equal to 30.0) | – |
| C#Cc1nn(-c2ccccc2)c2c1[C@H](c1ccc(F)cc1)[C@@H](NC(=O)c1cccc(C(F)(F)F)c1)C(=O)N2CC (racemic) [Compound I-235, N-((4S,5R)-7-ethyl-3-ethynyl-4-(4-fluorophenyl)-6-oxo-1-phenyl-4,5,6,7-tetrahydro-1H-pyrazolo[3,4-b]pyridine-5-yl)-3-(trifluoromethyl)benzamide] | – | – | + (MS Emax % adduct formation greater than or equal to 0.0 and less than or equal to 30.0) | – |
| C#CCNC(=O)c1nn(-c2ccccc2)c2c1[C@H](c1ccc(F)cc1)[C@H](NC(=O)c1cccc(C(F)(F)F)c1)C(=O)N2CC (racemic) [Compound I-242] | – | – | + (MS Emax % adduct formation greater than or equal to 0.0 and less than or equal to 30.0) | – |
| CCN1C(=O)[C@@H](NC(=O)c2cccc(C(F)(F)F)c2)[C@@H](c2ccc(F)cc2)c2c(C3CO3)nn(-c3ccccc3)c21 (relative stereo) [Compound I-196, N-((4RS,5RS)-7-ethyl-4-(4-fluorophenyl)-3-((S*)-oxiran-2-yl)-6-oxo-1-phenyl-4,5,6,7-tetrahydro-1H-pyrazolo[3,4-b]pyridine-5-yl)-3-(trifluoromethyl)benzamide] | – | – | + (MS Emax % adduct formation greater than or equal to 0.0 and less than or equal to 30.0) | – |
| CCN1C(=O)[C@H](NC(=O)c2cccc(C(F)(F)F)c2)[C@@H](c2ccc(F)cc2)c2c(C3CO3)nn(-c3ccccc3)c21 (relative stereo) [Compound I-207, N-((4RS,5SR)-7-ethyl-4-(4-fluorophenyl)-3-((S*)-oxiran-2-yl)-6-oxo-1-phenyl-4,5,6,7-tetrahydro-1H-pyrazolo[3,4-b]pyridine-5-yl)-3-(trifluoromethyl)benzamide] | – | – | + (MS Emax % adduct formation greater than or equal to 0.0 and less than or equal to 30.0) | – |
| CCN1C(=O)[C@@H](NC(=O)c2cccc(C(F)(F)F)c2)[C@@H](c2ccc(F)cc2)c2c(C(=O)N(C)[C@H](C#N)CCN(C)C)nn(-c3ccccc3)c21 (relative stereo) [Compound I-303, (4S,5S)—N-[(1S*)-1-cyano-3-(dimethylamino)propyl]-7-ethyl-4-(4-fluorophenyl)-N-methyl-6-oxo-1-phenyl-5-[3-(trifluoromethyl)benzamido]-4H,5H-pyrazolo[3,4-b]pyridine-3-carboxamide] | – | – | ++ (MS Emax % adduct formation greater than 30.0 and less than or equal to 80.0) | – |
| CCN1C(=O)[C@@H](NC(=O)c2cccc(C(F)(F)F)c2)[C@@H](c2ccc(F)cc2)c2c(CNC(=O)C(F)Cl)nn(-c3ccccc3)c21 (stereo in doubt) [Compound I-205] | – | – | + (MS Emax % adduct formation greater than or equal to 0.0 and less than or equal to 30.0) | – |
| CCN1C(=O)[C@@H](NC(=O)c2cccc(C(F)(F)F)c2)[C@@H](c2ccc(F)cc2)c2c([C@@H](C)NC(=O)C(C)Cl)nn(-c3ccccc3)c21 (stereo in doubt) [Compound I-212] | – | – | + (MS Emax % adduct formation greater than or equal to 0.0 and less than or equal to 30.0) | – |
| CCN1C(=O)[C@@H](NC(=O)c2cccc(C(F)(F)F)c2)[C@@H](c2ccc(F)cc2)c2c([C@@H](C)NC(=O)C(F)Cl)nn(-c3ccccc3)c21 (stereo in doubt) [Compound I-239] | – | – | + (MS Emax % adduct formation greater than or equal to 0.0 and less than or equal to 30.0) | – |
| CCN1C(=O)[C@@H](NC(=O)c2cccc(C(F)(F)F)c2)[C@@H](c2ccc(F)cc2)c2c(CN(C)C(=O)C(F)Cl)nn(-c3ccccc3)c21 (stereo partly drawn) [Compound I-145] | – | – | + (MS Emax % adduct formation greater than or equal to 0.0 and less than or equal to 30.0) | – |
| C=C(F)C(=O)NCc1nn(-c2ccccc2)c2c1[C@H](c1ccc(F)cc1)[C@H](NC(=O)c1cccc(C(F)(F)F)c1)C(=O)N2CC [Compound I-240] | – | – | + (MS Emax % adduct formation greater than or equal to 0.0 and less than or equal to 30.0) | – |

Source: patent US20250163057A1, “DCN-1 MODULATING COMPOUNDS AND METHODS OF USE THEREOF” (Cellarity, Inc., priority 2023, published 2025)
